Four compounds from patent publication EP0100051A1, “New derivatives of 1-alkylamine-(4(p-alkyloxy-benzamide)phenoxy)-2-propanol, having beta-sympatholytic activity, their salts, and production processes thereof” (A. Menarini S.a.S., priority 1982, dated 1984) can be followed below.

Assay [1] relates to β -chronotropic effects (cardiac frequency increase), β .-inotropic effects (systolic ejection velocity increase), and ,β2 effects (diastolic pressure lowering). The assay is described as follows: antagonism of the effects of isoprenaline in the anaesthetized and reserpenized rat after oral administration (in vivo). The following applies: for inherent sympathicomimetic activity: cardiac frequency in the reserpenized animal at rest; for cardioselectivity: from the in vivo and in vitro results, β1 versus β2 effects of isoprenaline; for power gap between vivo and vitro: in vivo activity relative to in vitro activity.

Assay [2] deals with β chronotropic effects (cavy right atrium), β1 inotropic effects (cavy ventricle) and 2 effects (cavy trachea) of the isoprenaline. Put plainly: antagonism of the effects of isoprenaline on isolated tissues (in vitro). The following applies: compared with the compounds of the invention. An excerpt:
The beta-sympatholytic activity of the compounds under examination has been tested in vivo as antagonist to the β -chronotropic effects (cardiac frequency increase), β .-inotropic effects (systolic ejection velocity increase), and ,β2 effects (diastolic pressure lowering) of the isoprenaline upon the anaesthetized and reserpenized rat, after oral administration, and in vitro as antagonist to the β chronotropic effects (cavy right atrium), β1 inotropic effects (cavy ventricle) and 2 effects (cavy trachea) of the isoprenaline.

In the case of `CC(C)NCC(O)COc1ccc(NC(=O)c2ccc(Cl)cc2)cc1` (centres unmarked) [1 [4(-p--chlorobenzamide)phenoxy] -3-isopropylamine-2-propanol], in assay [1], the inherent sympathicomimetic activity entry is “also present”; the cardioselectivity result is “also present”; the “power gap between vivo and vitro” value is “lack of a significant power gap between vivo and vitro”.

As to `CC(C)NCC(O)COc1ccc(NC(=O)c2ccccc2)cc1` (centres unmarked) [1-(4-benzamidephenoxy)-3-isopropylamine-2-propanol], in assay [1], the inherent sympathicomimetic activity entry is listed as “also present”; the cardioselectivity result was “also present”; the “power gap between vivo and vitro” value was “lack of a significant power gap between vivo and vitro”.

With `CC(=O)Nc1ccc(OCC(O)CNC(C)C)cc1` (centres unmarked) [practolol], in assay [1], the inherent sympathicomimetic activity entry is listed as “also present”; the cardioselectivity entry is “also present”; the “power gap between vivo and vitro” value is “lack of a significant power gap between vivo and vitro”.

With `CC(C)NCC(O)COc1cccc2ccccc12` (centres unmarked) [propranolol], the “beta-sympatholytic activity in vitro” value in assay [2] is recorded as “more active in vitro”. The “power gap between vivo and vitro” value in assay [1] was “relevant decrease of the in vivo activity”.
